In patent US10065990B2, “Cyclic peptide compound, and preparation method, pharmaceutical composition and use thereof” (HANGZHOU GUANYU BIO-MEDICAL CO., LTD, priority 2013, dated 2018):
Like-named read-outs stand apart in the source and are kept apart here.

Legend:
HDAC1 = HDAC1 (Homo sapiens, UniProt Q13547); assay: HDAC biochemical activity measurement (fluorescent substrate deacetylation);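 further: fluorogenic acetyl-lysine substrate (20 µM) deacetylated by HDAC1, then developer releases fluorophore read at 360 nm excitation and 460 nm emission, inhibitor incubated 30 min at 37 °C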
Sequence of HDAC1 (Q13547 whole entry, species assumed): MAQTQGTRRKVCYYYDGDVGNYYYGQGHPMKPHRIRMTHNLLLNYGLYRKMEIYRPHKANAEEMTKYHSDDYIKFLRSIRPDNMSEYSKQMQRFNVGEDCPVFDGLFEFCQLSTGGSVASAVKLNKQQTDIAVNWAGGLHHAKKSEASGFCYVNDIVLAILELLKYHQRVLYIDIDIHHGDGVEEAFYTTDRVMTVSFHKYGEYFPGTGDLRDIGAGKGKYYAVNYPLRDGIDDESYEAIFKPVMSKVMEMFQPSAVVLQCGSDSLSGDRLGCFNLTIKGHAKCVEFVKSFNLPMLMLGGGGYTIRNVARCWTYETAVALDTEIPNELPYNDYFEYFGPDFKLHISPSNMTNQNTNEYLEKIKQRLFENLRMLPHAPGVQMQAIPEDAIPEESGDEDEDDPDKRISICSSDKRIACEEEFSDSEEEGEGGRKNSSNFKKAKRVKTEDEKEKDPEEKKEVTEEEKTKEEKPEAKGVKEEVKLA

HDAC2 = HDAC2 (Homo sapiens, UniProt Q92769); assay: as above; conditions: 37° C. 30 minutes;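 further: HDAC2 enzyme with an acetyl-lysine fluorescent substrate, then developer added, fluorescence read at excitation 360 nm and emission 460 nm, inhibition measured across several compound concentrations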
Sequence of HDAC2 (Q92769 whole entry, species assumed): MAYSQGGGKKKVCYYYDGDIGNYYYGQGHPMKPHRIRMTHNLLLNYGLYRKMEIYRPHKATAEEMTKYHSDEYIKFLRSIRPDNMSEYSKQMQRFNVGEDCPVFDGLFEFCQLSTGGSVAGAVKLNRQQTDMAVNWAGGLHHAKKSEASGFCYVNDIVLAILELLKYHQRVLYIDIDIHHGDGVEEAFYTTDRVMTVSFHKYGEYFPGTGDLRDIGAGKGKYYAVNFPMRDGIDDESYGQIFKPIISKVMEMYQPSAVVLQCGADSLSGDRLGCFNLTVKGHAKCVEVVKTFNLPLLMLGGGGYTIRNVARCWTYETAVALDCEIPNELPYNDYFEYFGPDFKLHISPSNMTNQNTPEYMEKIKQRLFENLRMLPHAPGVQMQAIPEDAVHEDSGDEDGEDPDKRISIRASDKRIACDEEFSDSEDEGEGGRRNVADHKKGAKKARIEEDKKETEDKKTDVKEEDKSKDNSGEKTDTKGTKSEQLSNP

HDAC7 = target: T1, HDAC7 (Homo sapiens, UniProt Q8WUI4); assay: as above; conditions: HDAC7; 37° C. 30 minutes;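 further: fluorogenic deacetylation assay using acetyl-lysine substrate at 20 µM, enzyme and compound incubated 30 min at 37 °C, then developer added, fluorescence read at 360/460 nm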
T1 sequence (Q8WUI4 1-952): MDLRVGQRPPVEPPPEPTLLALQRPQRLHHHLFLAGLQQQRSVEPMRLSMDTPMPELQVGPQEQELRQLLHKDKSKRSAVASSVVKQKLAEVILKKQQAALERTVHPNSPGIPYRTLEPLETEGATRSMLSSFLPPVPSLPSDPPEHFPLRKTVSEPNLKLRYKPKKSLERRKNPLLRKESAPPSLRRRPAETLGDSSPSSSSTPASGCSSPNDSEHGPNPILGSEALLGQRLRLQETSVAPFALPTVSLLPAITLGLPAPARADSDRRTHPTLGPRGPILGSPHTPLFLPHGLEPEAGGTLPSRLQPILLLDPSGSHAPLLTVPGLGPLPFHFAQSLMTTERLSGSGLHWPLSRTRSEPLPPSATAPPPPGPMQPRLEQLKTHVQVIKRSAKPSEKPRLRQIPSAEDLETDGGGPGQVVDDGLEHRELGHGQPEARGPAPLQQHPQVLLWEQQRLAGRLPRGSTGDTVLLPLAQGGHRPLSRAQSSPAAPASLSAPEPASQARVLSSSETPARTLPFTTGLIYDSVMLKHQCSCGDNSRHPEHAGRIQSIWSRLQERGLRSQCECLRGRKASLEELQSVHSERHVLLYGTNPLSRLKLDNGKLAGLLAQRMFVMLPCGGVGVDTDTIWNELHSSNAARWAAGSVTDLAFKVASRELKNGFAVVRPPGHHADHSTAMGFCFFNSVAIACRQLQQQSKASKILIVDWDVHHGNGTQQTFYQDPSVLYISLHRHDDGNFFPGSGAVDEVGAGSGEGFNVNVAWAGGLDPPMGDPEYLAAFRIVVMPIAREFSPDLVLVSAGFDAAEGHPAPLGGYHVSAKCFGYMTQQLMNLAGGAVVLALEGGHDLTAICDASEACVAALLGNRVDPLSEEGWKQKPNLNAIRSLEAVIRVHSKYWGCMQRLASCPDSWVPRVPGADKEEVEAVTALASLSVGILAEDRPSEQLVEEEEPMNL

[1] = tested on: A549 (human lung cancer cells); assay: MTT cancer cell growth inhibition; type: cell-based; conditions: Homo sapiens, A549, 72 h, MTT
Outline: (§1)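 Three-day compound exposure (final 10^−5–10^−10 M, three replicate wells) of cells seeded at 1500 per well precedes a 4 h MTT incubation at 37° C. Viability is taken from 570 nm absorbance after DMSO solubilisation, and GI50 calculated from it.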

[2] = tested on: Huh-7 (human hepatoma cells); assay: MTT cancer cell growth inhibition; type: cell-based; conditions: Homo sapiens, Huh-7, 72 h, MTT, 72 hours incubation, Huh-7 cells; read-out: GI50 Huh-7
Outline: as §1

[3] = tested on: KBM5-T315I (human chronic myelogenous leukemia); assay: MTT cancer cell growth inhibition; type: cell-based; conditions: Homo sapiens, 72 h, MTT, 72 hours incubation, KBM5-T315I cells; read-out: GI50 KBM5-T315I
Outline: as §1

[4] = tested on: MCF-7 (human breast cancer cells); assay: MTT cancer cell growth inhibition; type: cell-based; conditions: Homo sapiens, MCF7, 72 h
Outline: as §1

[5] = tested on: MDA-MB-231 (breast cancer cells); assay: MTT cancer cell growth inhibition; type: cell-based; conditions: Homo sapiens, MDA-MB-231, 72 h, read-out: GI50 MDA-MB-231, MTT, 72 hours incubation, MDA-MB-231 cells
Outline: as §1

[6] = tested on: MOLT-4 (human acute lymphoblastic leukemia cells); assay: MTT cancer cell growth inhibition; type: cell-based; conditions: Homo sapiens, MOLT-4, 72 h, MTT
Outline: as §1

[7] = tested on: PANC-1 (Pac-1, human pancreatic cancer cells); assay: MTT cancer cell growth inhibition; type: cell-based; conditions: Homo sapiens, PANC-1, 72 h, MTT
Outline: as §1

[8] = tested on: SGC-7901 (human gastric cancer cells); assay: MTT cancer cell growth inhibition; type: cell-based; conditions: Homo sapiens, SGC-7901, 72 h, MTT, 72 hours incubation, SGC-7901 cells; read-out: GI50 SGC-7901
Outline: as §1

[9] = tested on: lncap (prostate cancer cells); assay: MTT cancer cell growth inhibition; type: cell-based; conditions: Homo sapiens, LNCaP, 72 h, MTT
Outline: as §1

HDAC11 = target: T2, HDAC11 (Homo sapiens, UniProt Q96DB2); assay: HDAC biochemical activity measurement (fluorescent substrate deacetylation);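 further: HDAC11 enzyme acting on an acetyl-lysine fluorogenic substrate, then a developer frees the fluorophore, read at excitation 360 nm and emission 460 nm, IC50 over a compound dilution series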
T2 sequence (Q96DB2 1-347): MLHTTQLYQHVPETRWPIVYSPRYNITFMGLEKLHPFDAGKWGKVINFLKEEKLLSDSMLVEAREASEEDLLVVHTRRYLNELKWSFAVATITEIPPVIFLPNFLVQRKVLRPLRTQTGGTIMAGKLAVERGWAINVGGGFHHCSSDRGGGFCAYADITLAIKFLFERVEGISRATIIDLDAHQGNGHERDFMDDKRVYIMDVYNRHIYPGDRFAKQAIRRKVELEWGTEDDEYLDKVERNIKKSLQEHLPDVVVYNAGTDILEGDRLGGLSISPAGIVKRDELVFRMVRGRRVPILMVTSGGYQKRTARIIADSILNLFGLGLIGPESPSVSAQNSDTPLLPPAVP

[10] = HDAC1, 37° C. 30 minutes, read-out: IC50 HDAC1
[11] = Table 3, column C, read-out: IC50 HDAC1, C (six-membered ring with substituents)
[12] = 72 hours incubation, read-out: GI50 A54
[13] = 72 hours incubation, read-out: GI50 MCF
[14] = 72 hours incubation, read-out: GI50 Mol
[15] = 72 hours incubation, read-out: GI50 PAN
[16] = 72 hours incubation, read-out: GI50 lnca
[17] = read-out: IC50 HDAC11, HDAC11, 37° C. 30 minutes
[18] = Table 3, read-out: IC50 HDAC1, D (non-substituent)

Row | Structure (SMILES) | IC50 (HDAC1; [10]) [nM] | IC50 (HDAC2) [nM] | IC50 HDAC7 (HDAC7) | GI50 [1, 12] [nM] | GI50 [2] [nM] | GI50 [3] [nM] | GI50 [4, 13] [nM] | GI50 [5] [nM] | GI50 [6, 14] [nM] | GI50 [7, 15] [nM] | GI50 [8] [nM] | GI50 [9, 16] [nM] | IC50 (HDAC11; [17]) [nM] | IC50 (HDAC1; [18]) [nM] | IC50 (HDAC11) [nM] | other results
1 | C/C=C1\NC(=O)c2cc(F)cc(n2)CNC(=O)C[C@@H](/C=C/CCSC(=O)CCCCCCC)OC(=O)[C@H](CC)NC1=O [Compound 55] | 13 | 34 | no activity | 50 | 29 | 73 | 70 | 29 | 20 | 80 | 59 | 20 | 83 | – | – | IC50 (HDAC1; [11]): 13 nM
2 | C/C=C1\NC(=O)c2cccc(n2)CNC(=O)C[C@@H](/C=C/CCSC(=O)CCCCCCC)OC(=O)[C@H](Cc2ccccc2)NC1=O [Compound 14] | 94 | 59 | no activity | 100 | 92 | 12 | 400 | 85 | 20 | 530 | 43 | 200 | 103 | 94 | – | IC50 (HDAC1; Table 2, read-out: IC50 HDAC1, a (compounds of the present invention)): < 100 nM; GI50 ([1]; 72 hours, present invention, read-out: GI50 A549, a): 100 nM; GI50 ([4]; 72 hours, present invention, read-out: GI50 MCF7, a): 400 nM; GI50 ([6]; 72 hours, present invention, read-out: GI50 Molt-4, a): 20 nM; GI50 ([7]; 72 hours, present invention, read-out: GI50 PANC-1, a): 530 nM; GI50 ([9]; 72 hours, present invention, read-out: GI50 lncap, a): 200 nM
3 | C/C=C1\NC(=O)c2cccc(n2)CNC(=O)C[C@@H](/C=C/CCSC(C)=O)OC(=O)[C@H](CCCCNC(=O)OCC2c3ccccc3-c3ccccc32)NC1=O [Compound 16] | 181 | 56 | no activity | 4200 | 43 | 19 | 49500 | 93 | 700 | 4100 | 51 | 82100 | 95 | 181 | – | –
4 | C/C=C1\NC(=O)c2nc(ccc2F)CNC(=O)C[C@@H](/C=C/CCSC(=O)CCCCCCC)OC(=O)[C@H](CC)NC1=O [Example 54] | 74 | 24 | no activity | 60 | 34 | 63 | 60 | 34 | 30 | 50 | 64 | 30 | – | – | 99 | –
5 | C/C=C1\NC(=O)c2nc(ccc2F)CNC(=O)C[C@@H](/C=C/CCSC(=O)CCCCC)OC(=O)[C@H](C(C)C)NC1=O [Compound 36] | 11 | 43 | no activity | 40 | 43 | 57 | 50 | 43 | 40 | 60 | 47 | 40 | 85 | – | – | IC50 (HDAC1; [11]): 11 nM
6 | C/C=C1\NC(=O)c2ccc(F)c(n2)CNC(=O)C[C@@H](/C=C/CCSC(=O)CCCCCCC)OC(=O)[C@H](Cc2ccccc2)NC1=O [Example 71] | 51 | 29 | no activity | 30 | 29 | 28 | 20 | 29 | 20 | 80 | 35 | 20 | – | – | 96 | –
7 | C/C=C1\NC(=O)c2cccc(n2)CNC(=O)C[C@@H](/C=C/CCSC(C)=O)OC(=O)[C@H](CCCCN)NC1=O [Compound 15] | 191 | 47 | no activity | 2300 | 73 | 16 | 19800 | 91 | 19700 | 2580 | 53 | 400 | 106 | 191 | – | –
8 | C/C=C1\NC(=O)c2cccc(n2)NC(=O)C[C@@H](/C=C/CCSC(C)=O)OC(=O)[C@H](C(C)C)NC1=O [Example 22] | 93 | 54 | no activity | 1030 | 82 | 26 | 1110 | 92 | 2060 | 4070 | 53 | 390 | – | – | 97 | –
